Key:
patients with RLS = experiment: Treatment of 2 patients with RLS: therapeutic history, monotherapy trials and combination therapy; format: in vivo, human; details: for side effects: dose-limiting or intolerable
Experimental: 2 patients with RLS (person and person) were treated with a combination therapy of pramipexole and clonidine.
The clonidine was also initially prescribed in a single dose of 0.075 mg two hours before bedtime and increased by 0.075 mg at intervals of 3 days.
2. Treatment with a combination therapy of clonidine and pramipexole After slowly bringing the clonidine therapy to a complete halt and after a treatment-free period of about 1 week, both patients were treated with a combination of 0.088 mg of pramipexole and 0.075 mg of clonidine. […] After 7 days the dosage of pramipexole had been increased to 0.18 mg and the dosage of clonidine to 0.15 mg, two hours before going to nd sleep.

[1] = tested on: Restless Leg Syndrome (RLS) patients; details: cited from earlier work; for relief from the complaint: a few partly open trials or long-term therapy; for effectiveness in RLS: short-term therapy trials or trials cited in the background
[2] = 0.225 mg (male) / 0.45 mg (female) single dose before bedtime
[3] = 2 RLS patients, previous therapy or monotherapy

With `Cc1nnc2n1-c1sc(Br)cc1C(c1ccccc1Cl)=NC2` [Brotizolam] the “falling asleep and sleeping through” value (patients with RLS; 2 RLS patients, previous therapy) was “improved”.

In the case of `NC(=O)N1c2ccccc2C=Cc2ccccc21` [Carbamazepine], the “relief from the complaint” value [1] is given as “only partial relief”.

In the case of `N[C@@H](Cc1ccc(O)c(O)c1)C(=O)O` [L-DOPA], the augmentation under therapy (patients with RLS; both RLS patients, previous therapy, disappeared on switch to a dopamine agonist) is given as “typical augmentation during the day” and the “relief from the complaint” value [1] is given as “significant alleviation of the complaint”.

In the case of `CC(C)C[C@H]1C(=O)N2CCC[C@H]2[C@]2(O)O[C@](NC(=O)[C@@H]3C[C@@H]4c5cccc6[nH]cc(c56)C[C@H]4N(C)C3)(C(C)C)C(=O)N12` [alpha-dihydroergocryptine], the “effectiveness in RLS” value [1] is listed as “effective”.

In the case of `C=CCN1C[C@H](C(=O)N(CCCN(C)C)C(=O)NCC)C[C@@H]2c3cccc4[nH]cc(c34)C[C@H]21` [cabergoline], the “effectiveness in RLS” value [1] is given as “effective”.

For `Clc1cccc(Cl)c1NC1=NCCN1` [clonidine, 2-(2,6-dichloroanilino)-4,5-dihydroimidazole], the compulsive movements (patients with RLS; [2]) was “improved”, the paresthesia felt (patients with RLS; [2]) was “hardly any” and the “quality of sleep and number of times they woke during the night” value (patients with RLS; [2]) was “not changed”. For the same compound, the side effects (patients with RLS; [3]) was “dry mouth, dizziness and constipation”, the “perceived symptoms such as paresthesia, compulsive movement and tiredness during the day” value ([1]; daily doses 0.1-0.9 mg, 4 open trials, 2 double-blind placebo-controlled trials, a single case study) was “(statistically significant) reduction” and the “sleep latency (polysomnographic)” value ([1]; daily doses 0.1-0.9 mg) was “shortened”. For the same compound, the “quality of sleep, frequency of waking or periodic leg movements in sleep (PLMS)” value ([1]; daily doses 0.1-0.9 mg, polysomnographic) was “not affected”.

In the case of `CCN(CC)C(=O)N[C@H]1C=C2c3cccc4[nH]cc(c34)C[C@H]2N(C)C1` [lisuride], the “effectiveness in RLS” value [1] is given as “effective”.

For `CCCN1C[C@H](CSC)C[C@@H]2c3cccc4[nH]cc(c34)C[C@H]21` [pergolide], the side effects (patients with RLS; [3]) is given as “nausea, gastrointestinal problems and dizziness” and the “effectiveness in RLS” value [1] is given as “effective”.

In the case of `CCCN[C@H]1CCc2nc(N)sc2C1` [pramipexole, (S)-2-amino-6-n-propylamino-4,5,6,7-tetrahydro-benzothiazole], the “RLS symptoms (discomfort, cramps and pains in the legs, compulsive movement, sleep problems, daytime tiredness)” value (patients with RLS; [3]) is listed as “certainly improved”, the “difference from earlier therapy” value (patients with RLS; pramipexole 0.36 mg (male) / 0.27 mg (female) daily, two hours before bedtime) is listed as “did not report any difference” and the “effectiveness in RLS” value [1] is listed as “effective”.

In the case of `CCCN(CCC)CCc1cccc2c1CC(=O)N2` [ropinirol], the “effectiveness in RLS” value [1] is given as “effective”.

In the case of bromocryptine, the “effectiveness in RLS” value [1] is listed as “effective”.

Source: patent publication US20010053777A1, “Drug treatment for restless leg syndrome” (priority 1999, published 2001)
